Test results as given in PubChem BioAssay AID1259408 (Genetic Toxicology Data Bank (GENE-TOX), 2018).
Activity calls are given as the source filed them. The rule behind the calls is not given here.

System: GENE-TOX genotoxicity assays, various organisms and cells
Assay: GENE-TOX mutagenicity studies
[1] = Species/Cell Type: Salmonella typhimurium (one or more of the five standard strains: TA98, TA100, TA1535, TA1537, and TA1538), Assay Type: Histidine reverse gene mutation, Ames assay, Assay Code: SAL+, Evaluation Type: Evaluation A (Pre-1980)
[2] = Species/Cell Type: Human diploid fibroblasts, Assay Type: Unscheduled DNA synthesis (UDS) in vitro, DNA effects, Assay Code: UDH-, Evaluation Type: Evaluation A (Pre-1980)

CCOC(=O)N(CC)N=O
mutagenic call (Species/Cell Type: Arabidopsis species, Assay Type: Gene mutation, Assay Code: ARM+D, Dose Response: With dose response, Evaluation Type: Evaluation A (Pre-1980)): active; positive | mutagenic call (Species/Cell Type: Drosophila melanogaster, Assay Type: Aneuploidy, partial sex chromosome loss, chromosome aberrations, Assay Code: DAP+MDAC+M, Dose Response: With dose response, Evaluation Type: Evaluation A (Pre-1980)): active; positive | mutagenic call (Species/Cell Type: Drosophila melanogaster, Assay Type: Aneuploidy, sex chromosome gain, chromosome aberrations, Assay Code: DAGT, Evaluation Type: Evaluation A (Pre-1980)): no conclusion | mutagenic call (Species/Cell Type: Drosophila melanogaster, Assay Type: Sex-linked recessive lethal gene mutation, Assay Code: SRL+, Evaluation Type: Evaluation A (Pre-1980)): active; positive | mutagenic call (Species/Cell Type: Escherichia coli polA (W3119 vs P3478), Assay Type: Rec-assay, DNA effects (bacterial DNA repair), Assay Code: RE1+, Evaluation Type: Evaluation A (Pre-1980)): active; positive | mutagenic call (Species/Cell Type: Hordeum vulgare (barley), Assay Type: Gene mutation, Assay Code: HOM+D, Dose Response: With dose response, Evaluation Type: Evaluation A (Pre-1980)): active; positive | mutagenic call (Species/Cell Type: Neurospora crassa, Assay Type: Reverse gene mutation, Assay Code: NER+, Evaluation Type: Evaluation A (Pre-1980)): active; positive | mutagenic call (Species/Cell Type: Saccharomyces cerevisiae, Assay Type: Mitotic recombination or gene conversion, Assay Code: YEC+, Evaluation Type: Evaluation A (Pre-1980)): active; positive | mutagenic call [1]: active; positive | mutagenic call (Species/Cell Type: Schizosaccharomyces pombe, Assay Type: Reverse gene mutation, Assay Code: YEZ+, Evaluation Type: Evaluation A (Pre-1980)): active; positive

CC1(C)C(C=C(Cl)Cl)C1C(=O)OCc1cccc(Oc2ccccc2)c1 (stereo not drawn)
mutagenic call [2]: inactive; negative | mutagenic call (Species/Cell Type: Saccharomyces cerevisiae, Assay Type: Mitotic recombination or gene conversion, Assay Code: YEH-, Evaluation Type: Evaluation A (Pre-1980)): inactive; negative

O=c1[nH]c(=O)n([C@H]2C[C@H](O)[C@@H](CO)O2)cc1I
mutagenic call (Species/Cell Type: Arabidopsis species, Assay Type: Gene mutation, Assay Code: ARM-, Evaluation Type: Evaluation A (Pre-1980)): inactive; negative | mutagenic call (Species/Cell Type: Drosophila melanogaster, Assay Type: Sex-linked recessive lethal gene mutation, Assay Code: SRLT, Evaluation Type: Evaluation A (Pre-1980)): no conclusion | mutagenic call (Species/Cell Type: Escherichia coli polA (W3119 vs P3478), Assay Type: Rec-assay, DNA effects (bacterial DNA repair), Assay Code: RE1T, Evaluation Type: Evaluation A (Pre-1980)): no conclusion | mutagenic call [2]: inactive; negative | mutagenic call (Species/Cell Type: Human lymphocytes, Assay Type: Sister-chromatid exchange (SCE) in vitro, Assay Code: SCL+D, Dose Response: With dose response, Evaluation Type: Evaluation B (Post-1980)): active; positive | mutagenic call (Species/Cell Type: Human, Assay Type: Sister-chromatid exchange (SCE) in vitro, Assay Code: SC1+D, Dose Response: With dose response, Evaluation Type: Evaluation B (Post-1980)): active; positive | mutagenic call (Species/Cell Type: Mammalian polychromatic erythrocytes, Assay Type: Micronucleus test, chromosome aberrations, Assay Code: MNTT, Evaluation Type: Evaluation A (Pre-1980)): no conclusion | mutagenic call (Species/Cell Type: Mouse, Sex: Male, Assay Type: Sperm morphology, Assay Code: SPI+, Evaluation Type: Evaluation A (Pre-1980)): active; positive | mutagenic call (Species/Cell Type: Saccharomyces cerevisiae, Assay Type: Mitotic recombination or gene conversion, Assay Code: YEH-*, Activation: With metabolic activation, Evaluation Type: Evaluation A (Pre-1980)): inactive; negative | mutagenic call (Species/Cell Type: Salmonella typhimurium (one or more of the five standard strains: TA98, TA100, TA1535, TA1537, and TA1538), Assay Type: Histidine reverse gene mutation, Ames assay, Assay Code: SAL-, Evaluation Type: Evaluation A (Pre-1980)): inactive; negative | mutagenic call (Species/Cell Type: Salmonella typhimurium, Assay Type: Forward and reverse gene mutation, host-mediated assay, Assay Code: HMA-, Evaluation Type: Evaluation A (Pre-1980)): inactive; negative | mutagenic call (Species/Cell Type: Syrian hamster embryo (SA7/SHE) cells, Assay Type: Cell transformation, viral enhanced, Assay Code: CT7+, Evaluation Type: Evaluation A (Pre-1980)): active; positive | mutagenic call (Species/Cell Type: Syrian hamster embryo (SHE) cells, Assay Type: Cell transformation, clonal assay, Assay Code: CTC-, Evaluation Type: Evaluation A (Pre-1980)): inactive; negative

Oc1c(Oc2ccc(Cl)cc2Cl)cc(Cl)c(Cl)c1Cl
mutagenic call (Species/Cell Type: Human lymphocytes, Assay Type: Sister-chromatid exchange (SCE) in vitro, Assay Code: SCLT, Evaluation Type: Evaluation B (Post-1980)): no conclusion | mutagenic call (Species/Cell Type: Human, Assay Type: Sister-chromatid exchange (SCE) in vitro, Assay Code: SC1T, Evaluation Type: Evaluation B (Post-1980)): no conclusion | mutagenic call (Species/Cell Type: Mouse, Sex: Female, Assay Type: Spot test, gene mutation, Assay Code: MSTT, Evaluation Type: Evaluation A (Pre-1980)): no conclusion | mutagenic call (Species/Cell Type: Saccharomyces cerevisiae, Assay Type: Forward gene mutation, Assay Code: YEF+, Evaluation Type: Evaluation A (Pre-1980)): active; positive | mutagenic call (Species/Cell Type: Saccharomyces cerevisiae, Assay Type: Mitotic recombination or gene conversion, Assay Code: YEC-, Evaluation Type: Evaluation A (Pre-1980)): inactive; negative | mutagenic call (Species/Cell Type: Saccharomyces cerevisiae, Assay Type: Mitotic recombination or gene conversion, Assay Code: YEH+, Evaluation Type: Evaluation A (Pre-1980)): active; positive

COC(=O)CN(CC(=O)OC)C1C[C@H]1N(CC(=O)OC)CC(=O)OC (stereo partly drawn)
mutagenic call (Species/Cell Type: Chinese hamster lung (V79) cells, Assay Type: Forward gene mutation at the HPRT or ouabain locus, Assay Code: V79+, Evaluation Type: Evaluation A (Pre-1980)): active; positive

c1ccc2cc(C3CO3)ccc2c1 (stereo not drawn)
mutagenic call [1]: active; positive
